Values joined by “and” are separate entries in the source; they are usually repeats but may differ in a detail not shown here. Equal entries are not always repeated. “Also recorded” adds a separate entry of the source.
Assays:
INS-1E cells = assay: Glucose-stimulated insulin secretion; assay type: cell-based, rat
human D2R [1] = target: T1, human D2R (Homo sapiens, UniProt P14416); assay: cell-based; assay type: cell-based; settings: for Emax: read-out: D2R mitogenesis Emax
Target sequence in this assay (P14416 whole entry): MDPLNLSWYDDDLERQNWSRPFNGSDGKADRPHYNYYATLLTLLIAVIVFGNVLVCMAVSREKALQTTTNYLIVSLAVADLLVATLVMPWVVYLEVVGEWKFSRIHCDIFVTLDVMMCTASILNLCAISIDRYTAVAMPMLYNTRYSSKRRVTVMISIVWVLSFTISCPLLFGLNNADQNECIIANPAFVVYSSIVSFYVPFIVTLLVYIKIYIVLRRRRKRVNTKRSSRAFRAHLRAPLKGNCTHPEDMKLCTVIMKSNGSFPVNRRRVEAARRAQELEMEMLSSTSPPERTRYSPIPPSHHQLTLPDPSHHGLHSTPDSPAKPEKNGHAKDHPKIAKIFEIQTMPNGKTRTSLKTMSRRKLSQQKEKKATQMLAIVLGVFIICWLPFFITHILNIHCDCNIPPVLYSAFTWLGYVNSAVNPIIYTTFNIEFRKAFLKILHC

human D3R [2] = target: T2, human D3R (Homo sapiens, UniProt P35462); assay: D3R-mediated mitogenesis; assay type: cell-based; settings: for Emax: read-out: D3R mitogenesis Emax
T2 sequence (P35462 whole entry): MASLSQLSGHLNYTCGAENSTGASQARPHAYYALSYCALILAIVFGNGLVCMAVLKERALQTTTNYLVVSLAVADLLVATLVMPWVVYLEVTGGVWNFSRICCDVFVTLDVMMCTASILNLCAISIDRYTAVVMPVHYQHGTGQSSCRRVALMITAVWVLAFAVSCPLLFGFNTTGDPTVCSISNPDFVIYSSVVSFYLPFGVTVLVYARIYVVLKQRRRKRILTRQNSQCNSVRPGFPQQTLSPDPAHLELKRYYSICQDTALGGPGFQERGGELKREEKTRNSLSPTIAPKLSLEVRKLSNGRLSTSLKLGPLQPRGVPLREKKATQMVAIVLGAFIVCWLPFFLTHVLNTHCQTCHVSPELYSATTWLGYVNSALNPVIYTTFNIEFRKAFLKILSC

[3] = In vivo pharmacokinetics, plasma and brain levels; design: species or system CD1 mice; settings: for Brain Conc.: mean ± SEM, n=3; for Kp at 0.25 h / Kp at 1 h / concentration at 15 min / concentration at 60 min: male, CD1, mouse, 10 mg/kg; for Kp at 0.25 h / Kp at 1 h: brain, iv; for concentration at 15 min / concentration at 60 min: plasma, intravenous
human D2R [4] = target: T1, human D2R; settings: [3H]-(R)-(+)-7-OH-DPAT
Target sequence in this assay (P14416 whole entry): as the sequence (P14416 whole entry) above

human D2R [5] = target: T1, human D2R; assay: biochemical
Target sequence in this assay (P14416 whole entry): as above

human D3R [6] = target: T2, human D3R; assay: biochemical
human D3R [7] = target: T2, human D3R; assay: Radioligand competition binding, HEK293 membranes, hD3R; settings: [3H]-(R)-(+)-7-OH-DPAT
human D4R = assay: Radioligand competition binding, HEK293 membranes, hD4R; settings: [3H]-(R)-(+)-7-OH-DPAT
human DA D4.4 receptors = target: T3, human DA D4.4 receptors (Homo sapiens, UniProt P21917); assay type: cell-based; settings: inhibition of forskolin-stimulated cAMP formation
T3 sequence (P21917 1-419): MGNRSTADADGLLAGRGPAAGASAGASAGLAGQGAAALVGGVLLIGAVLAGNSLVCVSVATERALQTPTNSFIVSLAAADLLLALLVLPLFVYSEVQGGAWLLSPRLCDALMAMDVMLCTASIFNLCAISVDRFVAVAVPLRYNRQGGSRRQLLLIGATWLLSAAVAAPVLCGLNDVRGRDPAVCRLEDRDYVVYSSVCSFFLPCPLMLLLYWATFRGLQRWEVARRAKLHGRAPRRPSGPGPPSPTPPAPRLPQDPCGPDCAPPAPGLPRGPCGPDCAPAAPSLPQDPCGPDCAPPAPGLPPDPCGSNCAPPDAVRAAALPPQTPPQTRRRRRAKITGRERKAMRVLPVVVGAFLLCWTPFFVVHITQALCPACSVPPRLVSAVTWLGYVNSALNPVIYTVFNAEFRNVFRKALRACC

human D2R [8] = target: T1, human D2R; assay type: cell-based
Target sequence in this assay (P14416 whole entry): as the sequence (P14416 whole entry) above
Target sequence in this assay (P63096 2-354 partner limits assumed): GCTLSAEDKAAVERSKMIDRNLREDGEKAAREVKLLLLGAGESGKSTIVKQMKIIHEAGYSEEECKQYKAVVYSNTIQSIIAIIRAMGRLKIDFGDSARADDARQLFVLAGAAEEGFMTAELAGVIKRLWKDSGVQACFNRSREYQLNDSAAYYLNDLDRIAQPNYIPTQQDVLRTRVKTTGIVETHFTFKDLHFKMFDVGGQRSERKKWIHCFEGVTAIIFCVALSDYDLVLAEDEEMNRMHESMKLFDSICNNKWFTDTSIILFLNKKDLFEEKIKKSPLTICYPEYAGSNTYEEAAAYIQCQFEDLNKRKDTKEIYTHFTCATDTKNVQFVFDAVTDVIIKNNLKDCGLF

[9] = Mouse microsomal stability assay; assay type: in vitro ADME; settings: mouse liver microsomes + NADPH, 1 µM, 30 min
[10] = tested on: Western diet-fed wild-type C57BL/6J mice; assay: Oral glucose tolerance testing in diet-induced obesity model; assay type: in vivo; settings: for fasting blood glucose: 6-h fast
[11] = tested on: Western diet-fed wild-type C57BL/6J mice; assay: Insulin tolerance testing in diet-induced obesity model; assay type: in vivo; settings: 10 mg/kg i.p. daily, 12 weeks
[12] = tested on: Western diet-fed wild-type C57BL/6J mice; assay: Body weight in diet-induced obesity model; assay type: in vivo; settings: 10 mg/kg i.p. daily, at 12 weeks
Sprague-Dawley rats = assay: Intracerebroventricular L-DOPA infusion, plasma glucose and insulin; assay type: in vivo; settings: 10 mM i.c.v. infusion, 5 µL/h, 3.5 h
[13] = 10 mg/kg i.v., 60 min versus 15 min

Q: Which “decrease in GSIS potency versus unmodified parent” value (INS-1E cells) does the source give for CCC[N+]1(C)CCC[C@@H]2Cc3n[nH]cc3C[C@H]21.[I-] (stereo partly drawn) [AB01–59, (4aR,8aR)-5-Methyl-5-propyl-4,4a,5,6,7,8,8a,9-octahydro-2H-pyrazolo[3,4-g]quinolin-5-ium iodide] here?
A: 5.9 fold

Q: And the “reduced efficacy in GSIS versus unmodified parent (decrease)” value (INS-1E cells)?
A: 48.4%

Q: Which results are given for CC(C)C[C@H]1C(=O)N2CCC[C@H]2[C@]2(O)O[C@](NC(=O)[C@@H]3C=C4c5cccc6[nH]c(Br)c(c56)C[C@H]4[N+](C)(C)C3)(C(C)C)C(=O)N12.[I-] [AB01–60, (6aR,9R)-5-Bromo-9-(((2R,5S,10aS,10bS)-10b-hydroxy-5-isobutyl-2-isopropyl-3,6-dioxooctahydro-8H-oxazolo[3,2-a]pyrrolo[2,1-c]pyrazin-2-yl)carbamoyl)-7,7-dimethyl-4,6,6a,7,8,9-hexahydroindolo[4,3-fg]quinolin-7-ium iodide]?
A: diminished potency in D2R-mediated mitogenesis versus unmodified parent (human D2R [1]): 15.6 fold; Emax (human D2R [1]): 88%; EC50 (human D3R [2]): 38 ± 11 nM; diminished potency in D3R-mediated mitogenesis versus unmodified parent (human D3R [2]): 11.2 fold; Emax (human D3R [2]): 91%; decrease in GSIS potency versus unmodified parent (INS-1E cells): 57.7 fold; Brain Conc. ([3]; 10 mg/kg i.v., 15 min): 1282.3 ± 130.7 pmol/g; plasma levels greater compared to bromocriptine ([3]; 10 mg/kg i.v., 60 min, listed as BrMeI): 8 fold and ~ 8 fold; Brain Conc. ([3]; 10 mg/kg i.v., 60 min): 651.9 ± 133.7 pmol/g; Kp at 0.25 h [3]: 0.3 ± 0.03; Kp at 1 h [3]: 0.51 ± 0.06; concentration at 15 min [3]: 4260 ± 381 nM; concentration at 60 min [3]: 1280 ± 71.1 nM; D3R/D2R ratio of binding affinity (human D2R [4]): 5.57; diminished D2R binding affinity compared to unmodified parent compound (human D2R [4]): 5.3 fold; Ki (human D2R [5]): 3.14 ± 0.34 nM; Ki (human D3R [6]): 17.5 ± 4.9 nM; diminished D3R binding affinity compared to unmodified parent compound (human D3R [7]): 8.5 fold

Q: Which “loss of D4R binding affinity compared to unmodified parent” value (human D4R) does the source give for Cc1cccc(NC(=O)C[N+]2(C)CCC(c3ccccc3)CC2)c1.[I-] (stereo not shown) [AB01–102, 1-Methyl-1-(2-oxo-2-(m-tolylamino)ethyl)-4-phenylpiperidin-1-ium iodide] here?
A: 61.7 fold

Q: And the “diminished potency in D4R cAMP assay compared to unmodified parent” value (human DA D4.4 receptors)?
A: 731.9 fold

Q: And the “functional behaviour in D4R cAMP assay” value (human DA D4.4 receptors; relative to (−)-quinpirole)?
A: partial agonists

Q: Which results are given for CC(C)C[C@H]1C(=O)N2CCC[C@H]2[C@]2(O)O[C@](NC(=O)[C@@H]3C=C4c5cccc6[nH]c(Br)c(c56)C[C@H]4N(C)C3)(C(C)C)C(=O)N12 [Bromocriptine, bromocriptine]?
A: Emax (human D2R [1]): 99%; EC50 (human D3R [2]): 3.4 ± 1.1 nM; less efficacy than DA in Gαi1 recruitment to D2R (human D2R [8]): 47%; % drug remaining [9]: entirely metabolized; % drug remaining ([9]; listed as bromocriptine): complete disappearance; Brain Conc. ([3]; 10 mg/kg i.v., 15 min): 995.2 ± 188.0 pmol/g; Brain Conc. ([3]; 10 mg/kg i.v., 60 min): 71.1 ± 2.3 pmol/g; decrease in brain level by 60 min post-administration [3, 13]: 92.9%; decrease in plasma level by 60 min post-administration [3, 13]: 88.2%; Kp at 0.25 h [3]: 0.74 ± 0.11; Kp at 1 h [3]: 0.45 ± 0.05; concentration at 15 min [3]: 1340 ± 52.2 nM; concentration at 60 min [3]: 159 ± 15 nM; glucose tolerance (OGTT) versus vehicle ([10]; 10 mg/kg i.p. daily, 12 weeks): significant improvements in glucose tolerance; also recorded: improvement in glucose tolerance; fasting blood glucose ([10]; 10 mg/kg i.p. daily, 12 weeks): significantly lower fasting blood glucose; fasting blood glucose ([10]; 10 mg/kg i.p. daily, 12 weeks, listed as bromocriptine): significantly lower fasting glucose; glucose tolerance (OGTT) versus i.c.v. vehicle ([10]; i.c.v. daily, 8 weeks (10 mg/kg)): did not significantly modify glucose tolerance; also recorded: no significant effect on glucose tolerance; glucose tolerance ([10]; systemic administration, 8 weeks, data not shown): sufficient to improve glucose tolerance; insulin sensitivity / blood glucose during ITT versus vehicle ([11]; 1.5 U/kg insulin): significant improvements in insulin sensitivity; plasma insulin during ITT ([11]; initial 15 min of ITT): significantly enhanced plasma insulin levels; body weight versus vehicle [12]: neither systemic bromocriptine nor BrMeI treatments had significant effects on weight; also recorded: no significant effect; D3R/D2R ratio of binding affinity (human D2R [4]): 3.46; Ki (human D2R [5]): 0.59 ± 0.17 nM; Ki (human D3R [6]): 2.05 ± 0.56 nM

Q: For N[C@@H](Cc1ccc(O)c(O)c1)C(=O)O [L-DOPA], which “plasma glucose versus saline vehicle” value (Sprague-Dawley rats) is on record?
A: did not significantly impact

Q: What about the “plasma insulin versus saline vehicle” value (Sprague-Dawley rats) of the same molecule?
A: did not significantly impact

Q: With CN[C@@H]1Cc2cccc3[nH]c(=O)n(c23)C1 [Sumanirole, sumanirole] as the molecule, how does the Emax (human D2R [1]) read?
A: 110%

Q: What about the EC50 (human D3R [2]) of the same molecule?
A: 224 ± 24 nM

Q: And the Emax (human D3R [2])?
A: 180%
